Experiments:
Assay in all cases: relative viability (nuclei count vs DMSO), 5 days (fraction); higher = more cells survive
Gemcitabine + Vorinostat = compound: Nc1ccn([C@@H]2O[C@H](CO)[C@@H](O)C2(F)F)c(=O)n1 [Gemcitabine] + O=C(CCCCCCC(=O)Nc1ccccc1)NO [Vorinostat] (partner 1 µM)
Method in brief: (§1)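 Dosing by pin tool came one day after lung cancer cell lines were seeded in 1536-well plates, using either one drug or a fixed anchor-drug dose plus five library-drug doses (not always all listed) in √10 steps. After 5 days, nuclei were counted on 4× images. Relative viability is treated-well nuclei count divided by vehicle-well nuclei count, and values are medians of duplicate plates.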

Gemcitabine + Pictilisib = compound: Nc1ccn([C@@H]2O[C@H](CO)[C@@H](O)C2(F)F)c(=O)n1 [Gemcitabine] + CS(=O)(=O)N1CCN(Cc2cc3nc(-c4cccc5[nH]ncc45)nc(N4CCOCC4)c3s2)CC1 [Pictilisib] (partner 1 µM)
Method in brief: as §1

Gemcitabine + Crizotinib = compound: Nc1ccn([C@@H]2O[C@H](CO)[C@@H](O)C2(F)F)c(=O)n1 [Gemcitabine] + C[C@@H](Oc1cc(-c2cnn(C3CCNCC3)c2)cnc1N)c1c(Cl)ccc(F)c1Cl [Crizotinib] (partner 1 µM)
Method in brief: as §1

Gemcitabine + Dasatinib = compound: Nc1ccn([C@@H]2O[C@H](CO)[C@@H](O)C2(F)F)c(=O)n1 [Gemcitabine] + Cc1nc(Nc2ncc(C(=O)Nc3c(C)cccc3Cl)s2)cc(N2CCN(CCO)CC2)n1 [Dasatinib] (partner 0.075 µM)
Method in brief: as §1

| Cell Line | relative viability (Gemcitabine + Vorinostat; first compound 0.001 µM) | relative viability (Gemcitabine + Vorinostat; first compound 0.003162 µM) | relative viability (Gemcitabine + Vorinostat; first compound 0.01 µM) | relative viability (Gemcitabine + Vorinostat; first compound 0.03162 µM) | relative viability (Gemcitabine + Vorinostat; first compound 0.1 µM) | relative viability (Gemcitabine + Pictilisib; first compound 0.001 µM) | relative viability (Gemcitabine + Pictilisib; first compound 0.003162 µM) | relative viability (Gemcitabine + Pictilisib; first compound 0.01 µM) | relative viability (Gemcitabine + Pictilisib; first compound 0.03162 µM) | relative viability (Gemcitabine + Pictilisib; first compound 0.1 µM) | relative viability (Gemcitabine + Crizotinib; first compound 0.001 µM) | relative viability (Gemcitabine + Crizotinib; first compound 0.003162 µM) | relative viability (Gemcitabine + Crizotinib; first compound 0.01 µM) | relative viability (Gemcitabine + Crizotinib; first compound 0.03162 µM) | relative viability (Gemcitabine + Crizotinib; first compound 0.1 µM) | relative viability (Gemcitabine + Dasatinib; first compound 0.001 µM) | relative viability (Gemcitabine + Dasatinib; first compound 0.003162 µM) | relative viability (Gemcitabine + Dasatinib; first compound 0.01 µM) | relative viability (Gemcitabine + Dasatinib; first compound 0.03162 µM) | relative viability (Gemcitabine + Dasatinib; first compound 0.1 µM) |
| --- | --- | --- | --- | --- | --- | --- | --- | --- | --- | --- | --- | --- | --- | --- | --- | --- | --- | --- | --- | --- |
| HCC-366 | 0.361 | 0.458 | 0.134 | 0.0306 | 0.0198 | 0.188 | 0.136 | 0.0591 | 0.0347 | 0.0366 | 0.629 | 0.588 | 0.0778 | 0.0184 | 0.0078 | 0.633 | 0.637 | 0.155 | 0.0301 | 0.0176 |
| HCC-827 | 0.883 | 0.806 | 0.426 | 0.19 | 0.179 | 1.11 | 0.845 | 0.89 | 0.591 | 0.389 | 0.886 | 0.674 | 0.572 | 0.387 | 0.214 | 0.295 | 0.226 | 0.319 | 0.253 | 0.186 |
| HOP-62 | 0.661 | 0.353 | 0.0836 | 0.0926 | 0.0697 | 0.78 | 0.464 | 0.315 | 0.0682 | 0.0859 | 0.906 | 0.677 | 0.0595 | 0.051 | 0.0502 | 0.667 | 0.571 | 0.163 | 0.0786 | 0.0707 |
| IA-LM | 0.943 | 0.907 | 0.865 | 0.0796 | 0.0532 | 0.336 | 0.332 | 0.219 | 0.1 | 0.0556 | – | 0.615 | 0.254 | 0.0992 | 0.0456 | – | – | – | – | – |
| LC-2-ad | 0.7 | 0.804 | 0.665 | 0.522 | 0.199 | 0.517 | 0.726 | 0.242 | 0.129 | 0.105 | 0.471 | – | 0.427 | 0.162 | 0.109 | 0.567 | 0.226 | 0.193 | 0.167 | 0.138 |
| LCLC-97TM1 | 0.51 | 0.314 | 0.149 | 0.0661 | 0.0642 | 0.141 | 0.167 | 0.126 | 0.11 | 0.12 | 0.297 | 0.179 | 0.0935 | 0.0797 | 0.12 | 0.819 | 0.803 | 0.429 | 0.159 | 0.106 |
| LCLC-103H | 0.761 | 0.856 | 0.754 | 0.585 | 0.46 | 0.579 | 0.641 | 0.659 | 0.627 | 0.417 | 1.12 | 1.07 | 0.934 | 0.997 | 0.272 | 0.54 | 0.53 | 0.502 | 0.179 | 0.223 |
| LK-2 | 0.265 | 0.268 | 0.155 | 0.164 | 0.146 | 0.527 | – | 0.419 | 0.271 | 0.288 | 0.285 | – | 0.255 | 0.238 | 0.225 | 0.299 | 0.356 | 0.174 | 0.201 | 0.158 |
| LOU-NH91 | 0.943 | 0.761 | 0.421 | 0.22 | 0.268 | 0.496 | 0.475 | 0.486 | 0.389 | 0.34 | 0.715 | 0.594 | 0.451 | 0.286 | 0.271 | 0.545 | 0.28 | 0.455 | 0.244 | 0.242 |
| LU99A | 0.509 | 0.577 | 0.502 | 0.523 | 0.531 | 0.33 | 0.31 | 0.313 | 0.369 | 0.333 | 0.577 | 0.648 | 0.567 | 0.567 | 0.562 | 0.555 | 0.56 | 0.558 | 0.516 | 0.507 |
| LXF-289 | 0.754 | 0.731 | 0.292 | 0.107 | 0.0902 | 0.761 | 0.758 | 0.592 | 0.275 | 0.11 | 0.786 | 0.783 | 0.562 | 0.127 | 0.112 | 0.227 | 0.22 | 0.0855 | 0.0424 | 0.0448 |
| NCI-H1299 | – | – | – | – | – | 0.637 | 0.728 | 0.709 | 0.883 | 0.655 | 1.03 | 0.977 | 0.973 | 0.995 | 0.983 | – | – | – | – | – |
| NCI-H1395 | 0.593 | 0.517 | 0.384 | 0.331 | 0.345 | 0.544 | 0.666 | 0.413 | 0.351 | 0.347 | – | – | – | – | – | 0.409 | 0.368 | 0.371 | 0.321 | 0.31 |
| NCI-H1563 | – | – | – | – | – | 0.599 | 0.669 | 0.652 | 0.634 | 0.506 | 0.861 | 0.993 | 0.917 | 0.635 | 0.411 | 0.433 | 0.46 | 0.457 | 0.378 | 0.373 |
| NCI-H1648 | 0.435 | 0.388 | 0.461 | 0.288 | 0.209 | – | – | – | – | – | – | – | – | – | – | – | – | – | – | – |
| NCI-H1703 | – | – | – | – | – | 0.208 | 0.227 | 0.158 | 0.154 | 0.132 | 0.588 | 0.208 | 0.11 | 0.125 | 0.0932 | – | – | – | – | – |
| NCI-H1792 | – | – | – | – | – | 0.238 | 0.226 | 0.111 | 0.0979 | 0.0699 | 1.05 | 0.897 | 0.222 | 0.0949 | 0.0981 | 0.785 | 0.485 | 0.329 | 0.192 | 0.142 |
| NCI-H1793 | 0.985 | 0.62 | 0.152 | 0.148 | 0.106 | 0.262 | 0.282 | 0.291 | 0.186 | 0.176 | – | – | – | – | – | 0.368 | 0.388 | 0.186 | 0.12 | 0.12 |
| NCI-H2342 | 0.732 | 0.56 | 0.452 | 0.346 | 0.289 | – | – | – | – | – | – | – | – | – | – | 0.312 | 0.277 | 0.282 | 0.233 | 0.293 |
| SW 900 | 0.476 | 0.374 | 0.236 | 0.129 | 0.146 | – | – | – | – | – | – | – | – | – | – | 0.526 | 0.138 | 0.0977 | 0.0689 | 0.0628 |
